From paper PMC9848351, “Discovery of new pyridine-quinoline hybrids as competitive and non-competitive PIM-1 kinase inhibitors with apoptosis induction and caspase 3/7 activation capabilities” (Journal of Enzyme Inhibition and Medicinal Chemistry, 2023)

Legend:
[1] = test system: prostate cancer cell line (PC-3); test: MTT anticancer activity, PC-3; assay type: cell-based, human; conditions: Homo sapiens, 72 h, PC-3, 72 h, mean ± SEM
Procedure: (§1) Anticancer effect of the above-mentioned compounds was evaluated using four human cancer cell lines. Colon cancer cells (Caco-2), myeloid leukaemia cell line (NFS-60), liver cancer cell line (HepG-2) and prostate cancer cell line (PC-3) using MTT method was used for assaying cell viability[26] (Supplementary Page S55).
(§2) All final compounds were evaluated against four human cancer cell lines namely; liver cancer (HepG2) (ATCC® HB-8065™), colon cancer (Caco-2) (ATCC® HTB-37™), leukaemia cancer (NFS-60) (ATCC® CRL-1838™), and prostate cancer (PC-3) (ATCC® CRL-1435™) using doxorubicin (Dox) as the reference drug being widely used in tumour management utilising microculture MTT assay, declared by Mosmann[26] (Table 1 in Supplementary Material, Figures 5–8). […]
(§3) MTT method was used for assaying cell viability 25. Twenty microliters of 5 mg/ml MTT (Sigma, USA) was added to each well and the plate was incubated at 37 °C for 3 h. Then MTT solution was removed, 100 µl DMSO was used and the absorbance of each well was measured with a microplate reader ( BMG LabTech, Germany) at 570 nm. The effective concentration (IC 50) and safe dose (EC100) values of the tested compounds that cause 50% and 100% cell viability were estimated by the Graphpad Instat software.
(§4) Determination of the anticancer activity
(§5) Anticancer effect of the above-mentioned compounds was evaluated using four human cancer cell lines. Colon cancer cells (Caco-2) were maintained in DMEM (Lonza, USA) containing 10% FBS while myeloid leukemia cell line (NFS-60), liver cancer cell line (HepG-2) and prostate cancer cell line (PC-3) were cultured in RPMI-1640 (Lonza, USA) supplemented with 10% FBS. All cancer cells (5x10^3 cells/well) were seeded in sterile 96-well plates. After 24h, serial concentrations of the tested compounds and Dox were incubated with four cancer cell lines for 72 h at 37 °C in 5% CO2 incubator. MTT method was done as described above. The Graphpad Instat software was used for calculating the half maximal inhibitory concentration (IC50) values. Furthermore, phase contrast inverted microscope with a digital camera (Olympus, Japan) was used for investigating […]
(§6) safest anticancer compounds. […]

[2] = test system: liver cancer cell line (HepG-2); test: MTT anticancer activity, HepG-2; assay type: cell-based, human; conditions: Homo sapiens, HepG2; HepG-2, 72 h, MTT; mean ± SEM
Procedure: as §1, §2, §3, §4, §5, §6

[3] = test system: normal human lung fibroblast Wi-38 cell line; test: MTT cytotoxicity on normal cells; assay type: cell-based; conditions: Wi-38, 72 h, MTT, mean ± SEM; for EC50: Homo sapiens, 50% cell viability; for Wi-38 EC100: safe dose, 100% cell viability
Procedure: Cytotoxicity of the tested compounds was evaluated using normal human lung fibroblast Wi-38 cell line compared to currently used anticancer drug (doxorubicin) using MTT method was used for assaying cell viability[26] (Supplementary Page S55).
Cytotoxicity test is one of the biological evaluations and screening tests that use human normal and cancer cells in-vitro to observe the effect of the studied compounds on their growth using MTT-based cytotoxicity. Microculture MTT method[26] was used to determine cytotoxic activity of the newly synthesised compounds against normal human lung fibroblast (Wi-38) using doxorubicin (Dox) as standard anticancer drug. The highest IC50 and EC100 values illustrate that the compounds were safe on the proliferation of normal human cells. […]. page 47:
(§7) Cytotoxicity of the tested compounds was evaluated using normal human lung fibroblast Wi-38 cell line compared to currently used anticancer drug (doxorubicin).
as §3, with “Firstly, Wi-38 cell line was subcultured in DMEM medium-contained 10% fetal bovine serum (FBS), then, seeded as 5x10^3 cells per well in 96-well cell culture plate and incubated at 37 °C in 5% CO 2 incubator. Serial concentrations of these compounds and doxorubicin (Dox) were incubat ed with Wi-38 cells for 72 h after 24 h for cell attachment. MTT method” for “MTT method”, “Instat software. […]” for “Instat software.”

[4] = test system: Colon cancer cells (Caco-2); test: MTT anticancer activity, Caco-2; assay type: cell-based, human; conditions: for IC50: Homo sapiens, Caco-2, 72 h, MTT, mean ± SEM; for Caco-2 SI: selectivity index, Wi-38 versus Caco-2
Procedure: as §1
All final compounds were evaluated against four human cancer cell lines namely; liver cancer (HepG2) (ATCC® HB-8065™), colon cancer (Caco-2) (ATCC® HTB-37™), leukaemia cancer (NFS-60) (ATCC® CRL-1838™), and prostate cancer (PC-3) (ATCC® CRL-1435™) using doxorubicin (Dox) as the reference drug being widely used in tumour management utilising microculture MTT assay, declared by Mosmann[26] (Table 1 in Supplementary Material, Figures 5–8).
as §7
as §3, with “Firstly, Wi-38 cell line was subcultured in DMEM medium-contained 10% fetal bovine serum (FBS), then, seeded as 5x10^3 cells per well in 96-well cell culture plate and incubated at 37 °C in 5% CO 2 incubator. Serial concentrations of these compounds and doxorubicin (Dox) were incubat ed with Wi-38 cells for 72 h after 24 h for cell attachment. MTT method” for “MTT method”
as §4, §5, §6

[5] = test system: myeloid leukaemia cell line (NFS-60); test: MTT anticancer activity, NFS-60; assay type: cell-based; conditions: NFS-60, 72 h, MTT; mean ± SEM
Procedure: as §1, §2, §3, §4, §5, §6

## COc1ccc2nc(N3CCOCC3)c(-c3cc(-c4cccc(OC(C)=O)c4)[nH]c(=O)c3C#N)cc2c1 [7c, 3-(5-Cyano-4-(6-methoxy-2-morpholin-4-yl-quinolin-3-yl)-6-oxo-1,6-dihydropyridin-2-yl)phenyl acetate]
[1]
  IC50: 101 ± 1 nM
[2]
  IC50: 142.1 ± 1 nM
[3]
  EC50: 137 ± 0.1 nM
  Wi-38 EC100: 0.094 ± 0.005 µM
other
  melting point: > 300 °C
[4]
  IC50: 127 ± 14 nM
  Caco-2 SI: 1.079
[5]
  IC50: 153 ± 34 nM

## N#Cc1c(-c2cc3ccccc3nc2N2CCCCC2)cc(-c2cccc(O)c2)nc1S [6d, 6-(3-Hydroxyphenyl)-4-(2-(piperidin-1-yl)quinolin-3-yl)-2-mercaptopyridine-3-carbonitrile]
[1]
  IC50: 135 ± 11 nM
[2]
  IC50: 87.6 ± 2 nM
[3]
  EC50: 759 ± 25 nM
  Wi-38 EC100: 0.212 ± 0.009 µM
other
  melting point: > 300 °C
[4]
  IC50: 70.8 ± 3 nM
  Caco-2 SI: 10.720
[5]
  IC50: 217 ± 22 nM

## N#Cc1c(-c2cc3cc(Cl)ccc3nc2N2CCOCC2)cc(-c2cccc(O)c2)nc1S [6b, 4-(6-Chloro-2-morpholin-4-yl-quinolin-3-yl)-6-(3-hydroxyphenyl)-2-mercaptopyridine-3-carbonitrile]
[1]
  IC50: 119 ± 14 nM
[2]
  IC50: 46.6 ± 1 nM
[3]
  EC50: 138 ± 2 nM
  Wi-38 EC100: 0.0493 ± 0.001 µM
other
  melting point: 260 to 261 °C
[4]
  IC50: 55.2 ± 3 nM
  Caco-2 SI: 2.500
[5]
  IC50: 204 ± 6 nM

## N#Cc1c(-c2cc3ccccc3nc2N2CCOCC2)cc(-c2cccc(O)c2)nc1S [6a, 6-(3-Hydroxyphenyl)-4-(2-morpholin-4-yl-quinolin-3-yl)-2-mercaptopyridine-3-carbonitrile]
[1]
  IC50: 127 ± 2 nM
[2]
  IC50: 74 ± 2 nM
[3]
  EC50: 181 ± 5 nM
  Wi-38 EC100: 0.0785 ± 0.003 µM
other
  melting point: 240 to 242 °C
[4]
  IC50: 104 ± 4 nM
  Caco-2 SI: 1.740
[5]
  IC50: 135 ± 2 nM

## N#Cc1c(-c2cc3cc(Cl)ccc3[nH]c2=O)cc(-c2cccc(O)c2)[nH]c1=O [13b, 4-(6-Chloro-2-oxo-1,2-dihydroquinolin-3-yl)-6-(3-hydroxyphenyl)-2-oxo-1,2-dihydropyridine-3-carbonitrile]
[1]
  IC50: 38.8 ± 3 nM
[2]
  IC50: 30.9 nM
[3]
  EC50: 48.6 ± 16 nM
  Wi-38 EC100: 0.017 ± 0.002 µM
other
  melting point: > 300 °C
[4]
  IC50: 48.4 ± 5 nM
  Caco-2 SI: 1.005
[5]
  IC50: 33.7 nM

## COc1ccc(NC(=O)COc2nc(-c3cccc(O)c3)cc(-c3cc4ccccc4nc3N3CCOCC3)c2C#N)cc1 [11c]
[1]
  IC50: 159 ± 7 nM
[2]
  IC50: 281 ± 7 nM
[3]
  EC50: 101 ± 1 nM
  Wi-38 EC100: 0.0483 ± 0.004 µM
other
  melting point: 268 to 270 °C
[4]
  IC50: 100 ± 14 nM
  Caco-2 SI: 1.010
[5]
  IC50: 110 ± 2 nM

## N#Cc1c(-c2cc3cc(Cl)ccc3nc2N2CCOCC2)cc(-c2cccc(O)c2)nc1OCC(=O)O [9b, 2-((4-(6-Chloro-2-morpholin-4-yl-quinolin-3-yl)-3-cyano-6-(3-hydroxyphenyl)pyridin-2-yl)oxy)acetic acid]
[1]
  IC50: 97.3 ± 8 nM
[2]
  IC50: 45.4 nM
[3]
  EC50: 171 ± 1 nM
  Wi-38 EC100: 0.134 ± 0.01 µM
other
  melting point: 279 to 280 °C
[4]
  IC50: 55.2 ± 2 nM
  Caco-2 SI: 3.098
[5]
  IC50: 380 ± 10 nM

## COc1ccc2nc(N3CCOCC3)c(-c3cc(-c4cccc(O)c4)nc(S)c3C#N)cc2c1 [6c, 6-(3-Hydroxyphenyl)-4-(6-methoxy-2-morpholin-4-yl-quinolin-3-yl)-2-mercaptopyridine-3-carbonitrile]
[1]
  IC50: 100.8 ± 0.1 nM
[2]
  IC50: 84.8 ± 2 nM
[3]
  EC50: 376 ± 1 nM
  Wi-38 EC100: 0.177 ± 0.011 µM
other
  melting point: > 300 °C
[4]
  IC50: 99.9 ± 3 nM
  Caco-2 SI: 3.764
[5]
  IC50: 145 ± 15 nM

## COc1ccc2nc(N3CCCCC3)c(-c3cc(-c4cccc(O)c4)[nH]c(=O)c3C#N)cc2c1 [5f, 6-(3-Hydroxyphenyl)-4-(6-methoxy-2-(piperidin-1-yl)quinolin-3-yl)-2-oxo-1,2-dihydropyridine-3-carbonitrile]
[1]
  IC50: 45.1 ± 0.1 nM
[2]
  IC50: 37.8 ± 10 nM
[3]
  EC50: 29.8 ± 2 nM
  Wi-38 EC100: 0.0258 ± 0.008 µM
other
  melting point: 265 to 267 °C
[4]
  IC50: 50.8 ± 4 nM
  Caco-2 SI: 0.587
[5]
  IC50: 42.83 ± 0.3 nM

## N#Cc1c(-c2cc3cc(Cl)ccc3[nH]c2=O)cc(-c2cccc(O)c2)nc1N [15b, 2-Amino-4-(6-chloro-2-oxo-1,2-dihydroquinolin-3-yl)-6-(3-hydroxyphenyl)pyridine-3-carbonitrile]
[1]
  IC50: 196 ± 61 nM
[2]
  IC50: 299 ± 8 nM
[3]
  EC50: 264 ± 6 nM
  Wi-38 EC100: 0.169 ± 0.009 µM
other
  melting point: > 300 °C
[4]
  IC50: 194 ± 2 nM
  Caco-2 SI: 1.361
[5]
  IC50: 323 ± 7 nM

## N#Cc1c(-c2cc3ccccc3nc2N2CCOCC2)cc(-c2cccc(O)c2)nc1OCC(=O)Nc1ccc(Cl)cc1 [11b, N-(4-Chlorophenyl)-2-((3-cyano-6-(3-hydroxyphenyl)-4-(2-morpholin-4-yl-quinolin-3-yl)pyridin-2-yl)oxy)acetamide]
[1]
  IC50: 130 ± 11 nM
[2]
  IC50: 71.5 ± 1 nM
[3]
  EC50: 337 ± 24 nM
  Wi-38 EC100: 0.00232 ± 0.001 µM
other
  melting point: 279 to 280 °C
[4]
  IC50: 63 ± 2 nM
  Caco-2 SI: 5.349
[5]
  IC50: 181 ± 7 nM

## COc1ccc2[nH]c(=O)c(-c3cc(-c4cccc(O)c4)nc(S)c3C#N)cc2c1 [14c, 6-(3-Hydroxyphenyl)-2-mercapto-4-(6-methoxy-2-oxo-1,2-dihydroquinolin-3-yl)pyridine-3-carbonitrile]
[1]
  IC50: 62.6 ± 0.1 nM
[2]
  IC50: 55.7 nM
[3]
  EC50: 166 ± 9 nM
  Wi-38 EC100: 0.0972 ± 0.005 µM
other
  melting point: 278 to 280 °C
[4]
  IC50: 84.2 ± 5 nM
  Caco-2 SI: 1.971
[5]
  IC50: 96.5 ± 4 nM

## N#Cc1c(-c2cc3ccccc3nc2N2CCCCC2)cc(-c2cccc(O)c2)[nH]c1=O [5d, 6-(3-Hydroxyphenyl)-2-oxo-4-(2-(piperidin-1-yl)quinoline-3-yl)-1,2-dihydropyridine-3-carbonitrile]
[1]
  IC50: 53.4 ± 4 nM
[2]
  IC50: 89.7 ± 13 nM
[3]
  EC50: 29.9 ± 0.1 nM
  Wi-38 EC100: 0.0239 ± 0.0003 µM
other
  melting point: 244 to 246 °C
[4]
  IC50: 38.6 ± 1 nM
  Caco-2 SI: 0.775
[5]
  IC50: 71.3 ± 3 nM
